This is an account of results in patent US9216999B2, “Substituted pyrrolo[2,3-h][1,6]naphthyridines and compositions thereof as JAK inhibitors” (priority 2011, dated 2015).

Format in all cases: biochemical
One experiment deals with JAK3 (Homo sapiens (Human), UniProt P52333). As to the kind of experiment: Enzyme assay (Assay Example^a 1), JAK3.
Another experiment concerns the target JAK1 (Homo sapiens (Human), UniProt P23458). As to the kind of experiment: Enzyme assay (Assay Example^a 1), JAK1. To be noted: ATP 100 μM.
In the next experiment the target is Tyk2 (Homo sapiens (Human), UniProt P29597). As to the kind of experiment: Enzyme assay (Assay Example^a 1), Tyk2. To be noted: ATP 100 μM.
Tyk2, sequence (P29597 whole entry): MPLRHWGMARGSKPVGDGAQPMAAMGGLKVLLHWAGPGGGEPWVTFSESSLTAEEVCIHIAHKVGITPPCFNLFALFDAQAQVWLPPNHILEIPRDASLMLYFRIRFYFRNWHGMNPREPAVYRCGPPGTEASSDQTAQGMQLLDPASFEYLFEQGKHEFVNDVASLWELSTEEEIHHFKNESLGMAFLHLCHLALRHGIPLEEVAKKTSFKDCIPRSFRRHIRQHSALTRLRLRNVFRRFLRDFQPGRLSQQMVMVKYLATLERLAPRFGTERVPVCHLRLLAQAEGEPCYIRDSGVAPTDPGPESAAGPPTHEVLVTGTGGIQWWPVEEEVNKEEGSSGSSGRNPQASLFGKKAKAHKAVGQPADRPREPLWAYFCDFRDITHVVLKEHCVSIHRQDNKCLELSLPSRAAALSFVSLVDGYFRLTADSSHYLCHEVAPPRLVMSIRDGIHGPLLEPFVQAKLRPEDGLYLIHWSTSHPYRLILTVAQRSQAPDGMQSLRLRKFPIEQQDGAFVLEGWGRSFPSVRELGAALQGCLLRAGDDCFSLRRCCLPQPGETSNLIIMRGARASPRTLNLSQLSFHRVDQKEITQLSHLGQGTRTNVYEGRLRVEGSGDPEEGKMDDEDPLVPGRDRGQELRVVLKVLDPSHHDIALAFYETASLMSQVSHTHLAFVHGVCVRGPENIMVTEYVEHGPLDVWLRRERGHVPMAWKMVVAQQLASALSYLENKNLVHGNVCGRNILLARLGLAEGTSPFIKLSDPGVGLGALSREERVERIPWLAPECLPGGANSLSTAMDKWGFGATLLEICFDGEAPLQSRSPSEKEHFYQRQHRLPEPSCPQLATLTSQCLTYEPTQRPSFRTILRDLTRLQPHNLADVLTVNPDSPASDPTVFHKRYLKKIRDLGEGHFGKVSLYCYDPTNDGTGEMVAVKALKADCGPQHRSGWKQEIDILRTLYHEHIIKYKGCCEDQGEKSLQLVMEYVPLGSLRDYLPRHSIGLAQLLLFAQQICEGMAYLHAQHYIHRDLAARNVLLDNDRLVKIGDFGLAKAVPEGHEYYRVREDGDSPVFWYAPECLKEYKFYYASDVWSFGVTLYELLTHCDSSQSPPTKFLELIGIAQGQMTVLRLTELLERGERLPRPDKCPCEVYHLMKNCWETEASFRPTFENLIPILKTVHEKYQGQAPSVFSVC
For another experiment, the target named is JAK2 (Homo sapiens (Human), UniProt O60674). The experiment is described as follows: Enzyme assay (Assay Example^a 1), JAK2. To be noted: ATP 100 μM.

Counter-ions that a name gives are not always drawn. Like-named read-outs stand apart in the source and are kept apart here.

JAK3, sequence (P52333 whole entry): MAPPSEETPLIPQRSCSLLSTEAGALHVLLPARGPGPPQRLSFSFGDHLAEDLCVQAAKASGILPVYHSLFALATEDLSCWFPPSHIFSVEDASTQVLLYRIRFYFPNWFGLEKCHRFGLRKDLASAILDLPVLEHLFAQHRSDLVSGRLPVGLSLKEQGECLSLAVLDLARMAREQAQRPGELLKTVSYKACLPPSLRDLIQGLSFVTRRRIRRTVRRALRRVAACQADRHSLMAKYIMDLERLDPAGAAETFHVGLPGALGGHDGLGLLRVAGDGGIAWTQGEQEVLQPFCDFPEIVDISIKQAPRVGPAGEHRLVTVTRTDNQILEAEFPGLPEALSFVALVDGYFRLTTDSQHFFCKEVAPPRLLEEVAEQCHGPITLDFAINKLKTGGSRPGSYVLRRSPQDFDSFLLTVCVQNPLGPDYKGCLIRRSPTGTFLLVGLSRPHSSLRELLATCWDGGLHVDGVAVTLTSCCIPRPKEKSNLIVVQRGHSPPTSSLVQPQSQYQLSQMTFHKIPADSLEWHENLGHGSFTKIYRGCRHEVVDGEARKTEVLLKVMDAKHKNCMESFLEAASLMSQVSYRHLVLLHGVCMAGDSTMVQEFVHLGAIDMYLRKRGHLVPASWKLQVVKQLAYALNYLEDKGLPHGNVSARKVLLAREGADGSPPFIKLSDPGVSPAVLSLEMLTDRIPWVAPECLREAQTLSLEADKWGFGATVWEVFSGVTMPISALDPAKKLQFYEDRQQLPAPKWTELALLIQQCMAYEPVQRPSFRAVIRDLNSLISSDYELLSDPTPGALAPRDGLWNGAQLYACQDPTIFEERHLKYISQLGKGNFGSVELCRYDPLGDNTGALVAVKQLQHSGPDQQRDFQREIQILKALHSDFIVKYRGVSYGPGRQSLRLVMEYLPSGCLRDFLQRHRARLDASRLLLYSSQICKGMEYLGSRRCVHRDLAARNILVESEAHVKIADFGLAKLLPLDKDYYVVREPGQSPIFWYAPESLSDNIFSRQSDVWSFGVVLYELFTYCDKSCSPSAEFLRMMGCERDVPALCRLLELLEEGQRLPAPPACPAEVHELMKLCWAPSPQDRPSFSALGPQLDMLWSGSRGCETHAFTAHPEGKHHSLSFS

The IC50 is the concentration that gives 50% inhibition. A high value points to weaker potency. On to `CC1CCCCC1c1nnn2cnc3[nH]ccc3c12` (stereo not shown) [compound 7], for which the IC50 was 0.055 µM at JAK3, 0.0042 µM against JAK1, 0.056 µM against Tyk2 and 0.012 µM against JAK2.

For `FC(F)(F)c1ccc(CCN2CCC(c3nnn4cnc5[nH]ccc5c34)CC2)cc1` [compound 42], the IC50 on JAK3 (ATP 100 μM, Table^a 154) was above 1 µM; at JAK1 (Table^a 154), 0.082 µM; on Tyk2 (Table^a 154) it was above 1 µM; against JAK2 (Table^a 154) it was 0.41 µM.

Take `c1ccc(CN[C@H]2CC[C@H](c3nnn4cnc5[nH]ccc5c34)CC2)cc1` [194b, trans-N-benzyl-4-(7H-pyrrolo[3,2-e][1,2,3]triazolo[1,5-c]pyrimidin-1-yl)cyclohexanamine]: the IC50 is 0.5 µM on JAK3 (ATP 100 μM, Table^a 154); 0.0084 µM on JAK1 (Table^a 154); 0.11 µM at Tyk2 (Table^a 154); 0.046 µM at JAK2 (Table^a 154).

Regarding `Clc1ccc(CN2CCC(c3nnn4cnc5[nH]ccc5c34)CC2)cn1` [compound 214, 1-{1-[(6-chloropyridin-3-yl)methyl]piperidin-4-yl}-7H-pyrrolo[3,2-e][1,2,3]triazolo[1,5-c]pyrimidine], the IC50 turned out to be 0.04 µM against JAK3 (ATP 100 μM), 0.0026 µM against JAK1, 0.29 µM against Tyk2 and 0.013 µM on JAK2.

Take `Fc1cc(NC[C@H]2CC[C@H](c3nnn4cnc5[nH]ccc5c34)CC2)cc(F)c1F` [compound 250, N-{[trans-4-(7H-pyrrolo[3,2-e][1,2,3]triazolo[1,5-c]pyrimidin-1-yl)cyclohexyl]methyl}-3,4,5-trifluoroaniline]: the IC50 on JAK3 (ATP 100 μM) was above 1 µM; against JAK1 it was 0.031 µM; at Tyk2, above 1 µM; against JAK2, 0.18 µM.

Consider `Cc1c(CN2CCC(c3nnn4cnc5[nH]ccc5c34)CC2)c(Cl)nn1CC(F)(F)F` [compound 374, 1-{1-[(3-Chloro-5-methyl-1-(2,2,2-trifluoroethyl)-1H-pyrazol-4-yl)methyl]piperidin-4-yl}-7H-pyrrolo[3,2-e][1,2,3]triazolo[1,5-c]pyrimidine], for which the IC50 at JAK3 (ATP 100 μM) is above 1 µM; against JAK1, 0.038 µM; at Tyk2, above 1 µM; at JAK2, 0.18 µM.

As for `CC(C)(C)OC(=O)N[C@@H]1CCN(C[C@H]2CC[C@H](c3nnn4cnc5[nH]ccc5c34)CC2)C1` [compound 299, tert-butyl ((R)-1-{[trans-4-(7H-pyrrolo[3,2-e][1,2,3]triazolo[1,5-c]pyrimidin-1-yl)cyclohexyl]methyl}pyrrolidin-3-yl)carbamate], the IC50 against JAK3 (ATP 100 μM) is above 1 µM; against JAK1, 0.016 µM; against Tyk2, above 1 µM; on JAK2, 0.17 µM.

In the case of `N#Cc1ccc(CN2CCC(c3nnn4cnc5[nH]ccc5c34)CC2)cc1C#N` [compound 242, 4-{[4-(7H-pyrrolo[3,2-e][1,2,3]triazolo[1,5-c]pyrimidin-1-yl)piperidin-1-yl]methyl}phthalonitrile], the IC50 on JAK3 (ATP 100 μM) was 0.96 µM; against JAK1 it was 0.0065 µM; at Tyk2, above 1 µM; on JAK2 it was 0.052 µM.

With `N#Cc1ccc(NC[C@H]2CC[C@H](c3nnn4cnc5[nH]ccc5c34)CC2)c2ccccc12` [compound 248, 4-({[trans-4-(7H-pyrrolo[3,2-e][1,2,3]triazolo[1,5-c]pyrimidin-1-yl)cyclohexyl]methyl}amino)-1-naphthonitrile], the IC50 is above 1 µM at JAK3 (ATP 100 μM), 0.041 µM against JAK1, above 1 µM against Tyk2 and 0.14 µM on JAK2.

As to `O=C(CNC[C@H]1CC[C@H](c2nnn3cnc4[nH]ccc4c23)CC1)NCC(F)(F)F` [compound 341, 2-({[trans-4-(7H-pyrrolo[3,2-e][1,2,3]triazolo[1,5-c]pyrimidin-1-yl)cyclohexyl]methyl}amino)-N-(2,2,2-trifluoroethyl)acetamide], the IC50 on JAK3 (ATP 100 μM) came out at 0.31 µM; at JAK1, 0.01 µM; against Tyk2, 0.32 µM; against JAK2, 0.059 µM.

For the compound `FC1(F)Oc2ccc(NC[C@H]3CC[C@H](c4nnn5cnc6[nH]ccc6c45)CC3)cc2O1` [compound 275, N-{[trans-4-(7H-pyrrolo[3,2-e][1,2,3]triazolo[1,5-c]pyrimidin-1-yl)cyclohexyl]methyl}-2,2-difluorobenzo[d][1,3]dioxol-5-amine], the IC50 was 0.85 µM at JAK3 (ATP 100 μM), 0.0067 µM on JAK1, 0.52 µM against Tyk2 and 0.065 µM on JAK2.

`CC(C#N)=C1CCC(c2nnn3cnc4[nH]ccc4c23)CC1` (stereo not shown) [compound 437, 2-[4-(7H-pyrrolo[3,2-e][1,2,3]triazolo[1,5-c]pyrimidin-1-yl)cyclohexylidene]propanenitrile]: the IC50 against JAK3 (ATP 100 μM) amounted to 0.57 µM; against JAK1 it was 0.02 µM; on Tyk2, 0.45 µM; on JAK2, 0.055 µM.

For the compound `N#CC(NC(=O)[C@H]1CC[C@H](c2nnn3cnc4[nH]ccc4c23)CC1)c1ccccc1` (stereo partly drawn) [compound 351, trans-N-[cyano(phenyl)methyl]-4-(7H-pyrrolo[3,2-e][1,2,3]triazolo[1,5-c]pyrimidin-1-yl)cyclohexanecarboxamide], the IC50 is above 1 µM at JAK3 (ATP 100 μM), 0.012 µM at JAK1, above 1 µM at Tyk2 and 0.089 µM at JAK2.

As for `FC(F)(F)c1ccc(CN[C@H]2CC[C@H](c3nnn4cnc5[nH]ccc5c34)CC2)cc1` [138b], the IC50 against JAK3 (ATP 100 μM, Table^a 154) is 0.4 µM; on JAK1 (Table^a 154), 0.0043 µM; against Tyk2 (Table^a 154), 0.046 µM; against JAK2 (Table^a 154), 0.043 µM.

For the compound `c1cc2c(ncn3nnc([C@H]4CC[C@H](CNC5COC5)CC4)c23)[nH]1` [compound 294, N-{[trans-4-(7H-pyrrolo[3,2-e][1,2,3]triazolo[1,5-c]pyrimidin-1-yl)cyclohexyl]methyl}oxetan-3-amine], the IC50 is 0.48 µM on JAK3 (ATP 100 μM), 0.022 µM at JAK1, 0.34 µM against Tyk2 and 0.12 µM against JAK2.

Consider `Fc1ccc(NC[C@H]2CC[C@H](c3nnn4cnc5[nH]ccc5c34)CC2)cc1F` [compound 249, N-{[trans-4-(7H-pyrrolo[3,2-e][1,2,3]triazolo[1,5-c]pyrimidin-1-yl)cyclohexyl]methyl}-3,4-difluoroaniline], for which the IC50 against JAK3 (ATP 100 μM) turned out to be 0.49 µM; against JAK1, 0.017 µM; on Tyk2, 0.86 µM; at JAK2 it was 0.056 µM.

On to `FC(F)(F)c1ccc(CN[C@H]2CC[C@@H](c3nnn4cnc5[nH]ccc5c34)CC2)cc1` [138a], for which the IC50 is above 1 µM against JAK3 (ATP 100 μM, Table^a 154); 0.023 µM against JAK1 (Table^a 154); 0.25 µM against Tyk2 (Table^a 154); 0.74 µM on JAK2 (Table^a 154).

For `CS(=O)(=O)NC[C@H]1CC[C@H](c2nnn3cnc4[nH]ccc4c23)CC1` [compound 427, N-{[trans-4-(7H-Pyrrolo[3,2-e][1,2,3]triazolo[1,5-c]pyrimidin-1-yl)cyclohexyl]methyl}methanesulfonamide], the IC50 is 0.03 µM on JAK3 (ATP 100 μM), 0.00016 µM at JAK1, 0.016 µM against Tyk2 and 0.0012 µM on JAK2.

Consider `O=C(CN[C@H]1CC[C@@H](c2nnn3cnc4[nH]ccc4c23)CC1)NCC(F)(F)F` [384a, 2-{[cis-4-(7H-pyrrolo[3,2-e][1,2,3]triazolo[1,5-c]pyrimidin-1-yl)cyclohexyl]amino}-N-(2,2,2-trifluoroethyl)acetamide], for which the IC50 against JAK3 (ATP 100 μM) is above 1 µM; on JAK1 it was 0.087 µM; against Tyk2 it was above 1 µM; at JAK2 it was 0.56 µM.

With `c1nc(CCNC[C@H]2CC[C@H](c3nnn4cnc5[nH]ccc5c34)CC2)c[nH]1` [compound 192, N-{[trans-4-(7H-pyrrolo[3,2-e][1,2,3]triazolo[1,5-c]pyrimidin-1-yl)cyclohexyl]methyl}-2-(1H-imidazol-4-yl)ethanamine hydrochloride], the IC50 worked out at 0.32 µM on JAK3 (ATP 100 μM, Table^a 154); 0.0039 µM on JAK1 (Table^a 154); 0.1 µM on Tyk2 (Table^a 154); 0.038 µM against JAK2 (Table^a 154).

Regarding `COCCN(CCOC)C[C@H]1CC[C@H](c2nnn3cnc4[nH]ccc4c23)CC1` [compound 326, N-{[trans-4-(7H-pyrrolo[3,2-e][1,2,3]triazolo[1,5-c]pyrimidin-1-yl)cyclohexyl]methyl}-2-methoxy-N-(2-methoxyethyl)ethanamine], the IC50 against JAK3 (ATP 100 μM) is above 1 µM; on JAK1 it was 0.048 µM; on Tyk2, above 1 µM; on JAK2, 0.31 µM.

Consider `OCCN(CCO)C[C@H]1CC[C@H](c2nnn3cnc4[nH]ccc4c23)CC1` [compound 298, 2,2′-({[trans-4-(7H-pyrrolo[3,2-e][1,2,3]triazolo[1,5-c]pyrimidin-1-yl)cyclohexyl]methyl}azanediyl)diethanol], for which the IC50 is above 1 µM against JAK3 (ATP 100 μM), 0.019 µM on JAK1, 0.59 µM against Tyk2 and 0.11 µM on JAK2.

For `N#CCN(CC1CC1)C[C@H]1CC[C@H](c2nnn3cnc4[nH]ccc4c23)CC1` [compound 414, 2-({[trans-4-(7H-pyrrolo[3,2-e][1,2,3]triazolo[1,5-c]pyrimidin-1-yl)cyclohexyl]methyl}(cyclopropylmethyl)amino)acetonitrile], the IC50 was above 1 µM against JAK3 (ATP 100 μM), 0.0095 µM on JAK1, 0.11 µM against Tyk2 and 0.13 µM at JAK2.

Turning to `N#Cc1ccc(NC[C@H]2CC[C@H](c3nnn4cnc5[nH]ccc5c34)CC2)cc1C#N` [compound 262, 4-({[trans-4-(7H-pyrrolo[3,2-e][1,2,3]triazolo[1,5-c]pyrimidin-1-yl)cyclohexyl]methyl}amino)phthalonitrile], the IC50 against JAK3 (ATP 100 μM) came to 0.59 µM; on JAK1, 0.0047 µM; at Tyk2 it was 0.91 µM; against JAK2 it was 0.045 µM.

As for `O=C1CN(C[C@H]2CC[C@H](c3nnn4cnc5[nH]ccc5c34)CC2)CCN1` [compound 260, 4-{[trans-4-(7H-pyrrolo[3,2-e][1,2,3]triazolo[1,5-c]pyrimidin-1-yl)cyclohexyl]methyl}piperazin-2-one], the IC50 on JAK3 (ATP 100 μM) is above 1 µM; against JAK1, 0.024 µM; against Tyk2, 0.97 µM; against JAK2, 0.048 µM.
